Measured values from US20250136581A1, “SUBSTITUTED TRIAZOLE DERIVATIVE, PREPARATION METHOD THEREFOR, PHARMACEUTICAL COMPOSITION THEREOF, AND USE THEREOF” (SHANGHAI SIMR BIOTECHNOLOGY CO., LTD., priority 2021, published 2025).

target: human α5β3γ2 receptors (α5-GABAA receptor) (Homo sapiens (Human), UniProt P18507+P31644); experiment: 3H-flunitrazepam competition binding, human α5β3γ2 GABAA receptor; settings: HEK293 cell membranes, 1 nM 3H-flunitrazepam; read-out: α5-GABAAR Ki
Protocol: The affinity of the compound to each subtype of GABAA receptor was determined by competing for the binding of ^3H-flunitrazepam to HEK293 cells stably expressing human α1β3γ2, α2β3γ2, α3β3γ2, and α5β3γ2 receptors.
The cells were suspended in 50 mM Tris-HCl buffer (pH=7.4), homogenized 10 times on ice with a homogenizer for 20 seconds, and centrifuged at 1000 g for 10 minutes at 4° C. The supernatant was collected, and the above steps were repeated. The supernatant was centrifuged at 4° C. (33800 g; Thermo, rotor: A27-8×50) for 60 minutes, and the precipitate was resuspended in Tris buffer (50 mM Tris-HCl, 10 mM MgCl2, 0.5 mM EDTA, 10% glycerol). Protein was measured (BCA method, Pierce), and 1 mL aliquots were prepared and stored at −80° C.
The radioligand competition binding assay was performed in a 200 μL system (96-well plate) containing 100 μL of cell membrane. The concentration of ^3H-flunitrazepam was 1 nM and the concentration of the test compound was in the range of […]. Flumazenil was used as a control. 1 μL of 2 mM flumazenil (final concentration […]) was added to the low signal control well (Low control, LC), and 1 μL of DMSO was added to the high signal control well (High control, HC). The final concentration of target membrane protein was […]. All test compound sample storage solutions were 10 mM. The working concentration of the samples was to dilute all the samples to 0.2 mM with DMSO, followed by 4-fold serial gradient dilutions for a total of 8 concentration gradients. The 96-well plate was sealed with a sealing film, and then incubated on a shaker at room temperature for 1 hour. At the same time, the GF/C filter plate was soaked in soaking buffer (0.3% PEI, stored at 4° C.) for at least 0.5 hours. After the binding incubation was completed, the cells were collected onto a GF/C filter plate using a cell harvester. The plate was washed four times with washing buffer (50 mM Tris-HCl, pH 7.4, stored at 4° C.). After drying in a 50° C. oven for 1 hour, the bottom of the dried GF/C filter plate was sealed. The residual radioactivity on the filter membrane was detected using liquid scintillation counting. 50 μL of scintillation fluid was added to each well, and the plate was sealed. The readings were taken using a Microbeta2. The inhibitory activity of the test sample on the binding of ^3H-flunitrazepam to GABAA receptor membrane proteins was calculated, and the IC50 of each test sample was calculated by dose-effect curve fitting (GraphPad Prism 5 software), and the Ki of the sample was calculated from the IC50, thus evaluating the binding ability of the sample to the various subtypes of GABAA receptors.

Ki [nM]	SMILES
7.39	Cc1nnn(-c2ccc(C(F)F)cc2)c1COc1ccc(N2CCCN(S(C)(=O)=O)CC2)nn1 [Example 106, 1-(6-((1-(4-(Difluoromethyl)phenyl)-4-methyl-1H-1,2,3-triazol-5-yl)methoxy)pyridazin-3-yl)-4-(methylsulfonyl)-1,4-diazepane]
2.35	Cc1nnn(-c2ccc(C(F)F)cc2)c1COc1ccc(N2CC(C(=O)Nc3cnn(C(C)C)c3)C2)nn1 [Example 150, 1-(6-((1-(4-(Difluoromethyl)phenyl)-4-methyl-1H-1,2,3-triazol-5-yl)methoxy)pyridazin-3-yl)-N-(1-isopropyl-1H-pyrazol-4-yl)azetidine-3-carboxamide]
1.34	Cc1nnn(-c2ccc(C(F)F)cc2)c1COc1ccc(N2CC(=O)N3CCS(=O)(=O)C[C@@H]3C2)nn1 [Example 176, (S)-8-(6-((1-(4-(Difluoromethyl)phenyl)-4-methyl-1H-1,2,3-triazol-5-yl)methoxy)pyridazin-3-yl)hexahydropyrazino[2,1-c][1,4]thiazin-6(1H)-one 2,2-dioxide]
0.96	O=C1CN(c2ccc(OCc3c(C(F)F)nnn3-c3ccc(C(F)F)cc3)nn2)CCN1 [Example 185, 4-(6-((4-(Difluoromethyl)-1-(4-(difluoromethyl)phenyl)-1H-1,2,3-triazol-5-yl)methoxy)pyridazin-3-yl)piperazin-2-one]
0.71	O=C1CN(c2ccc(OCc3c(Cl)nnn3-c3ccc(C(F)F)cc3)nn2)C[C@@H]2COCCN12 [Example 182, (R)-8-(6-((4-Chloro-1-(4-(difluoromethyl)phenyl)-1H-1,2,3-triazol-5-yl)methoxy)pyridazin-3-yl)hexahydropyrazino[2,1-c][1,4]oxazin-6(1H)-one]
2.63	Cc1nnn(-c2ccc(C(F)F)cc2)c1COc1ccc(N2CC(=O)N3CCS(=O)(=O)C[C@H]3C2)nn1 [Example 175, (R)-8-(6-((1-(4-(Difluoromethyl)phenyl)-4-methyl-1H-1,2,3-triazol-5-yl)methoxy)pyridazin-3-yl)hexahydropyrazino[2,1-c][1,4]thiazin-6(1H)-one 2,2-dioxide]
2.38	Cc1nnn(-c2ccc(C(F)F)cc2)c1COc1ccc(N2CC(C(=O)NCc3ccccc3)C2)nn1 [Example 48, N-Benzyl-1-(6-((1-(4-(difluoromethyl)phenyl)-4-methyl-1H-1,2,3-triazol-5-yl)methoxy)pyridazin-3-yl)azetidine-3-carboxamide]
6.17	Cc1nnn(-c2ccc(C(F)F)cc2)c1COc1ccc(N2CC(C(=O)NC3CCOC3)C2)nn1 (stereo not shown) [Example 51, 1-(6-((1-(4-(Difluoromethyl)phenyl)-4-methyl-1H-1,2,3-triazol-5-yl)methoxy)pyridazin-3-yl)-N-(tetrahydrofuran-3-yl)azetidine-3-carboxamide]
3.27	O=C1CN(c2ccc(OCc3c(C(F)(F)F)nnn3-c3ccc(C(F)F)cc3)nn2)CCN1 [Example 191, 4-(6-((1-(4-(Difluoromethyl)phenyl)-4-(trifluoromethyl)-1H-1,2,3-triazol-5-yl)methoxy)pyridazin-3-yl)piperazin-2-one]
13.8	COCc1ccc(-n2nnc(C)c2COc2ccc(N3CCN4CCNC(=O)[C@@H]4C3)nn2)cc1 [Example 161, (S)-8-(6-((1-(4-(Methoxymethyl)phenyl)-4-methyl-1H-1,2,3-triazol-5-yl)methoxy)pyridazin-3-yl)hexahydro-2H-pyrazino[1,2-a]pyrazin-1(6H)-one]
44.3	Cc1nnn(-c2ccc(F)cc2)c1COc1ccc(N2CCN(CC(F)(F)F)C(=O)C2)nn1 [Example 94, 4-(6-((1-(4-Fluorophenyl)-4-methyl-1H-1,2,3-triazol-5-yl)methoxy)pyridazin-3-yl)-1-(2,2,2-trifluoroethyl)piperazin-2-one]
1.49	CCNC(=O)CC1CN(c2ccc(OCc3c(C)nnn3-c3ccc(C(F)F)cc3)nn2)CCO1 (stereo not shown) [Example 63, 2-(4-(6-((1-(4-(Difluoromethyl)phenyl)-4-methyl-1H-1,2,3-triazol-5-yl)methoxy)pyridazin-3-yl)morpholin-2-yl)-N-ethylacetamide]
1.37	O=C1CN(c2ccc(OCc3c(Cl)nnn3-c3ccc(C(F)F)cc3)nn2)C[C@H]2COCCN12 [Example 183, (S)-8-(6-((4-Chloro-1-(4-(difluoromethyl)phenyl)-1H-1,2,3-triazol-5-yl)methoxy)pyridazin-3-yl)hexahydropyrazino[2,1-c][1,4]oxazin-6(1H)-one]
1.17	Cc1nnn(-c2ccc(C(F)F)cc2)c1COc1ccc(N2CCN(c3cnn(C(F)F)c3)C(=O)C2)nn1 [Example 113, 1-(1-(Difluoromethyl)-1H-pyrazol-4-yl)-4-(6-((1-(4-(difluoromethyl)phenyl)-4-methyl-1H-1,2,3-triazol-5-yl)methoxy)pyridazin-3-yl)piperazin-2-one]
2.48	CNC(=O)[C@@H]1CN(c2ccc(OCc3c(C)nnn3-c3ccc(C(F)F)cc3)nn2)CCO1 [Example 38, (S)-4-(6-((1-(4-(Difluoromethyl)phenyl)-4-methyl-1H-1,2,3-triazol-5-yl)methoxy)pyridazin-3-yl)-N-methylmorpholine-2-carboxamide]
1.25	CCNC(=O)C12CC(CN1c1ccc(OCc3c(C)nnn3-c3ccc(C(F)F)cc3)nn1)C2 [Example 115, 2-(6-((1-(4-(Difluoromethyl)phenyl)-4-methyl-1H-1,2,3-triazol-5-yl)methoxy)pyridazin-3-yl)-N-ethyl-2-azabicyclo[2.1.1]hexane-1-carboxamide]
2.4	Cc1nnn(-c2ccc(Cl)cc2)c1COc1ccc(N2CCNC(=O)C2)nn1 [Example 164, 4-(6-((1-(4-Chlorophenyl)-4-methyl-1H-1,2,3-triazol-5-yl)methoxy)pyridazin-3-yl)piperazin-2-one]
2.24	Cc1nnn(-c2ccc(C(F)F)cc2)c1COc1ccc(N2CCCC3(COC3)C2)nn1 [Example 85, 6-(6-((1-(4-(Difluoromethyl)phenyl)-4-methyl-1H-1,2,3-triazol-5-yl)methoxy)pyridazin-3-yl)-2-oxa-6-azaspiro[3.5]nonane]
17.4	Cc1nnn(-c2ccc(C(F)F)cc2)c1COc1ccc(N2CCN3c4ccncc4NC(=O)[C@@H]3C2)nn1 [Example 192, (S)-8-(6-((1-(4-(Difluoromethyl)phenyl)-4-methyl-1H-1,2,3-triazol-5-yl)methoxy)pyridazin-3-yl)-7,8,9,10-tetrahydro-5H-pyrazino[1,2-a]pyrido[3,4-e]pyrazin-6(6aH)-one]
33.6	CCNC(=O)[C@H]1CCN1c1ccc(OCc2c(C)nnn2-c2ccc(C(F)F)cc2)nn1 [Example 40]
0.6	Cc1nnn(-c2ccc(C(F)F)cc2)c1COc1ccc(N2CCn3cnnc3C2)nn1 [Example 84, 7-(6-((1-(4-(Difluoromethyl)phenyl)-4-methyl-1H-1,2,3-triazol-5-yl)methoxy)pyridazin-3-yl)-5,6,7,8-tetrahydro-[1,2,4]triazolo[4,3-a]pyrazine]
0.64	Cc1nnn(-c2ccc(C(F)F)cc2)c1COc1nnc(N2CCN3CCNC(=O)[C@@H]3C2)c2ncccc12 [Example 206, (S)-8-(5-((1-(4-(Difluoromethyl)phenyl)-4-methyl-1H-1,2,3-triazol-5-yl)methoxy)pyrido[2,3-d]pyridazin-8-yl)hexahydro-2H-pyrazino[1,2-a]pyrazin-1(6H)-one]
3.14	Cc1nnn(-c2ccc(C(F)F)cc2)c1COc1ccc(N2CCN(Cc3ncccn3)C(=O)C2)nn1 [Example 93, 4-(6-((1-(4-(Difluoromethyl)phenyl)-4-methyl-1H-1,2,3-triazol-5-yl)methoxy)pyridazin-3-yl)-1-(pyrimidin-2-ylmethyl)piperazin-2-one]
1.45	Cc1nnn(-c2ccc(C(F)F)cc2)c1COc1ccc(N2CCN3c4cccnc4NC(=O)[C@@H]3C2)nn1 [Example 193, (S)-3-(6-((1-(4-(difluoromethyl)phenyl)-4-methyl-1H-1,2,3-triazol-5-yl)methoxy)pyridazin-3-yl)-2,3,4,4a-tetrahydro-1H-pyrazino[1,2-a]pyrido[2,3-e]pyrazin-5(6H)-one]

same assay, conditions: α5-GABAAR Ki, HEK293 cell membranes, 1 nM 3H-flunitrazepam

SMILES	Ki [nM]
CCNC(=O)C12CC(CN(c3ccc(OCc4c(C)nnn4-c4ccc(C(F)F)cc4)nn3)C1)C2 [Example 121, 3-(6-((1-(4-(Difluoromethyl)phenyl)-4-methyl-1H-1,2,3-triazol-5-yl)methoxy)pyridazin-3-yl)-N-ethyl-3-azabicyclo[3.1.1]heptane-1-carboxamide]	1.73
